Measurements published in patent US20260345798A1, “COMPOUNDS AND METHODS OF USE THEREOF” (Virginia Commonwealth University, priority 2023, published 2026).
Residues, ends and D or L forms follow the SMILES beside them.

Assays:
MMP-2 and MMP-9 = test: Gelatin zymography of conditioned media; assay type: cell-based, human; conditions: A-375 and C8161.9 cells, 10, 25, 50 μM, 24 hrs
Protocol: FIG. 5B is images of zymography assays of MMP-2 and MMP-9 activity in A-375, C8161.9 cells treated with IVMT-Rx-3 at varying doses, and histograms showing the calculated intensity from the zymography assays. *: Statistical significance (p<0.05).
Tumor cells were treated with different doses of IVMT-Rx-3 (10, 25, and 50 μM) for 24 hrs. The cells were then cultured in serum-free medium overnight. Conditioned media (serum free media) collected on the next day was quantified and equal amounts of protein were run in a 7.5% SDS-polyacrylamide gel electrophoresis containing 1.5 mg/mL gelatin. The gels were washed vigorously with shaking 3×in 2.5% Triton X-100 solution to remove the SDS. The gel was then placed in the developing buffer [50 mM/L Tris-HCl (pH 7.5), 0.05% NaN3, 5 mM/L CaCl2), and 1 μM/L ZnCl2] 37 °C overnight. Lastly, the gels were stained with Amido black in 10% acetic acid followed by de-staining for 1 hr. MMP activities as observed through gelatinolysis were measured as clear zones of white strips against a blue background (21).

A-375 and C8161.9 cells = test: Boyden chamber invasion assay, comparison with PDZ1i; assay type: cell-based, human; conditions: 25 μM each
Protocol: (§1) FIG. 11A is a series of photomicrographs taken at 10× magnification showing invasion assays of A-375 cells treated with DMSO vehicle, 25 μM PDZ1i, or 25 μM IVMT-Rx-3, as well as histograms showing quantification of the average percent invasion of three independent experiments±standard deviation. *: Statistical significance (p<0.05).
as §1, with “11B” for “11A”, “C8161.9” for “A-375”, “IVMT-Rx-3 in C8161.9 melanoma cells,” for “IVMT-Rx-3,”
Invasive phenotype was measured using a Boyden Chamber Assay as described previously (6,8,18). Briefly, 25,000 cells were plated on the upper chamber of the trans well in FBS free media and allowed to invade the Matrigel layer towards the bottom chamber supplemented with complete media. Twenty-four hr. after plating, the invaded cells were fixed and counted under a bright field microscope.

[1] = Toxicity in pre-clinical animal models; conditions: in vivo
[2] = test system: primary normal human epidermal melanocytes (NHEM); test: MTT and colony formation assays in normal human melanocytes; assay type: cell-based
Protocol: FIG. 2A is a histogram showing the results of an MTT assay of normal human melanocytes treated with varying concentrations of IVMT-Rx-3.
FIG. 2B is a histogram showing the results of a colony formation assay of normal human melanocytes treated with varying concentrations of IVMT-Rx-3. Two-hundred cells were plated on 60-mm dishes, treated with IVMT-Rx-3 at different doses. Every third day, culture media was replaced with fresh IVMT-Rx-3-containing media. After two weeks, colonies were stained, counted and graphs plotted.
The effect of IVMT-Rx-3 on primary normal human epidermal melanocyte cell growth and survival was determined after short term (24 hr., growth assays) (FIG. 2A) and long-term exposure (3-week, clonal assays) (FIG. 2B).

IGFBP-2 [3] = test: IGFBP-2 ELISA in conditioned media; assay type: cell-based, human; conditions: 10, 25 or 50 μM, 24 hr
Protocol: FIG. 5C is a series of histograms showing the amount of IGFBP-2 secreted from A-375, C8161.9, TPF-19-219, TPF-19-235, and TPF-16-238 cells treated with varying concentrations of IVMT-Rx-3, as measured by ELISA.
IGFBP-2 levels in conditioned media were determined using an IGFBP-2 ELISA kit (R&D systems, USA) according to the manufacturer's instructions (9). Each sample was repeated three times, and represented graphically with GraphPad Prism software.
Insulin Growth Factor Binding Protein-2 (IGFBP-2) has been found in higher levels in the serum of individuals with diverse types of pathological conditions and is very germane in the context of angiogenesis, tumor promotion and chemoresistance (33). Since Src activation is critical for IGFBP-2 induced angiogenesis, a potential suppressive function of IVMT-Rx-3 on IGFBP-2 expression levels was investigated (9). Melanoma cells were treated with different doses (10, 25 or 50 μM) of IVMT-Rx-3 for 24 hr. and levels of IGFBP-2 in the media were determined using ELISA (FIG. 5C). […] Blocking MDA-9/Syntenin expression inhibits the secretion of cytokines/growth factors in breast cancer resulting in the conversion of an immunosuppressive to immunostimulatory microenvironment (23). Accordingly, the level of specific melanoma metastasis-associated cytokines, e.g., IL-6, IL-10, IL-16, following treatment with IVMT-Rx-3 was analyzed. […]

IGFBP-2 [4] = test: IGFBP-2 in blood plasma of B16-injected mice; assay type: in vivo, mouse; conditions: 30 mg/kg I.P., 6 injections
Excerpt: FIG. 6C is a histogram showing the IGFBP-2 expression measured in blood plasma from animals (n=7) in the treatment groups described in FIG. 6A. ****: Statistical significance (p<0.0001).

[5] = test system: X11/mint scaffold protein; test: Binding to other PDZ domains: X11/mint; conditions: 33% identity with PDZ1

binding to X11/mint scaffold protein [5]: did not bind appreciably
Structure (SMILES): Cc1cc(NC(=O)c2nc3[nH]c4c(c(=O)n3n2)CCC4)c(C)cc1NC(=O)CCOCCC(=O)N[C@H](C(=O)N[C@@H](CC(N)=O)C(=O)N[C@@H](CCC(=O)O)C(=O)N[C@@H](Cc1ccc(O)cc1)C(=O)N[C@@H](Cc1ccc(O)cc1)C(=O)N[C@H](C(=O)O)C(C)C)[C@@H](C)O [IVMT-Rx-3] (HELM PEPTIDE1{[Cc1cc(NC(=O)c2nc3[nH]c4c(c(=O)n3n2)CCC4)c(C)cc1NC(=O)CCOCCC(=O)[*:2]].T.N.E.Y.Y.V}$$$$V2.0)
MMP activity (zymography) (MMP-2 and MMP-9): lower activity in treated cells
anti-invasive efficacy in comparison with PDZ1i (A-375 and C8161.9 cells): significantly enhanced the anti-invasive efficacy in comparison with PDZ1i
toxicity in pre-clinical animal models [1]: without provoking toxicity
effect on cell proliferation on repeated treatment ([2]; 50 μM, repeated treatment, FIG. 2A and 2B): did not show any effect on cell proliferation
toxicity in primary melanocytes ([2]; 50 μM, 24 hr growth assay and 3-week clonal assay): No significant toxicity
toxicity in early passage normal human melanocytes ([2]; summary statement): without provoking toxicity
effect on cell proliferation in NHEM (MTT assay) ([2]; varying concentrations, FIG. 2A): lack of effect
IGFBP-2 in tumor-derived media (IGFBP-2 [3]): dose-dependent downregulation
IGFBP-2 levels in blood plasma (IGFBP-2 [4]): down regulation
